# Assay results taken from US9139502B2, “Use of an urushiol compound in preparation of pharmaceutical compositions for inhibiting Smad3 phosphorylation” (Southern Hospital, Southern Medical University, priority 2013, dated 2015).
# How the values were obtained:
# [1] = target: interaction of Smad3 with TβRI (Rattus norvegicus, UniProt P84025); test: Immunoprecipitation of Smad3 with TβRI in UUO kidneys; type: in vivo; design: from tissue; host or cells: kidney of UUO Sprague-Dawley rats; details: GQ-5 40 mg/kg daily i.p. right after UUO, sacrificed day 14
# Description: (§1) Male Sprague-Dawley rats with body weight 200 to 250 g were randomized into 3 groups (n=6 in each group): (1) sham operated rats; (2) UUO rats; (3) UUO+GQ-5 rats.
# (§2) GQ-5 was dissolved in 5% propylene glycol.
# (§3) (3) UUO+GQ-5 rats: daily intraperitoneal injection of GQ-5 (40 mg/kg body weight) right after UUO;
# UUO was performed using an established protocol as described. GQ-5 was dissolved in 5% propylene glycol. Rats were administrated with GQ-5 as described before. All the rats were sacrificed 14 days after UUO. Immunoprecipitation analyses were performed to examine the interaction among TβRI, TβRII, Smad3 and Smad2.
# [2] = test system: UUO rats; test: Renal interstitial fibrosis after UUO (HE and Masson trichrome staining); type: in vivo, rat; details: GQ-5 40 mg/kg daily i.p. initiating right after or 7 days after operation, sacrificed day 14
# Description: (§4) Male Sprague-Dawley rats were randomized into 4 groups (n=6 in each group): (1) sham operated rats; (2) UUO rats; (3) UUO+GQ-5 d1 rats; (4) UUO+GQ-5 d7 rats.
# as §2
# (§5) (3) UUO+GQ-5 d1 rats: daily intraperitoneal injection of GQ-5 (40 mg/kg body weight) right after UUO;
# (§6) (4) UUO+GQ-5 d7 rats: daily intraperitoneal injection of GQ-5 (40 mg/kg body weight) 7 days after UUO.
# (§7) UUO was performed using an established protocol as described. GQ-5 was dissolved in 5% propylene glycol. Rats were administrated with GQ-5 as described before. All the rats were sacrificed 14 days after UUO. HE staining, Masson trichrome staining were performed to examine the renal tissue injury, and Real-time PCR analyses, immunohistochemical staining, and Western blot analyses were performed to examine α-SMA, collagen I and fibronectin expression in kidney tissue
# [3] = test system: α-SMA; test: α-SMA expression in UUO kidney tissue (real-time PCR, immunohistochemistry, Western blot); type: in vivo, rat; details: UUO rats, GQ-5 40 mg/kg daily i.p., sacrificed day 14
# Description: as §4, §2, §5, §6, §7
# [4] = test system: Smad3-dependent collagen I promoter; test: Luciferase reporter assay of Smad3-dependent collagen I promoter activity; type: cell-based, rat; details: NRK52E cells transfected with p(GAGA)12-luc, GQ-5 0.1, 0.5, 2.5 μM pre-treated 1 h, TGF-β1 10 ng/ml 24 h
# [5] = test system: NRK52E cells; test: MTT cell viability test; type: cell-based, rat; details: GQ-5 0.25-4 μM, 1 h
# Description: To test the toxicity of GQ-5, rat proximal tubular cells (NRK52E) were seeded into 96-well plates in a volume of 200 μl per well (1×10^5 cell/ml) and incubated for 24 hours to allow cells to attach. The cells were then incubated with indicated amount of GQ-5 for 1 h. Cell viability was determined by addition of 20 μl of 3-(4,5-dimethylthiazol-2-yl)-2, 5-diphenyltetrazolium bromide (MTT) at a concentration of 5 mg/ml. After incubation for 4 hours, the medium was removed and 150 μl of DMSO was added to dissolve the formazan crystals. The absorbance was read at 540 nm by using iMark™Microplate Reader (Bio-Rad).
# [6] = test system: α-SMA; test: Western blot of TGF-β1-induced α-SMA protein in vitro; type: cell-based, rat; details: NRK 52E and NRK 49F cells, GQ-5 0.1-2.5 μM pre-treated 1 h, TGF-β1 10 ng/ml 48 h
# Description: (§8) NRK52E and NRK49F cells were cultured in DMEM-Ham's medium supplemented with 10% fetal bovine serum. The cells reached at approximately 50% confluence were used for in vitro experiments. Cells were serum-starved for 12 h, and randomized into 6 groups: (1) Controls; (2) GQ-5 only; (3) TGF-β1 only; (4) TGF-β1+GQ-5 0.1 μM; (5) TGF-β1+GQ-5 0.5 μM; (6) TGF-β1+GQ-5 2.5 μM
# (§9) (2) GQ-5 only: pre-treated with GQ-5 (2.5 μM) for 1 h, followed with DMEM for 48 h
# (§10) (3) TGF-β1 only: pre-treated with DMSO for 1 h, followed with TGF-β1 (10 ng/ml) for 48 h
# (§11) (4) TGF-β1+GQ-5 0.1 μM: pre-treated with GQ-5 (0.1 μM) for 1 h, followed with TGF-β1 (10 ng/ml) for 48 h
# (§12) (5) TGF-β1+GQ-5 0.5 μM: pre-treated with GQ-5 (0.5 μM) for 1 h, followed with TGF-β1 (10 ng/ml) for 48 h
# (§13) (6) TGF-β1+GQ-5 2.5 μM: pre-treated with GQ-5 (2.5 μM) for 1 h, followed with TGF-β1 (10 ng/ml) for 48 h
# (§14) GQ-5 was dissolved in DMSO. Cells were treated as described. Cells lysates were immunebloted with antibodies against α-SMA, collagen I and fibronectin.
# [7] = test system: fibronectin; test: Western blot of TGF-β1-induced fibronectin protein in vitro; type: cell-based, rat; details: NRK 52E and NRK 49F cells, GQ-5 0.1-2.5 μM pre-treated 1 h, TGF-β1 10 ng/ml 48 h
# Description: as §8, §9, §10, §11, §12, §13, §14
# [8] = test system: collagen I; test: Collagen I expression in UUO kidney tissue (real-time PCR, immunohistochemistry, Western blot); type: in vivo, rat; details: UUO rats, GQ-5 40 mg/kg daily i.p., sacrificed day 14
# Description: as §4, §2, §5, §6, §7
# [9] = test system: collagen I; test: Western blot of TGF-β1-induced collagen I protein in vitro; type: cell-based, rat; details: NRK 52E and NRK 49F cells, GQ-5 0.1-2.5 μM pre-treated 1 h, TGF-β1 10 ng/ml 48 h
# Description: as §8, §9, §10, §11, §12, §13, §14
# [10] = test system: p38; test: Western blot of p38 phosphorylation in UUO kidneys; type: in vivo, rat; details: UUO rats, GQ-5 40 mg/kg daily i.p. right after UUO, sacrificed day 14
# Description: as §1, §2, §3
# UUO was performed using an established protocol as described. GQ-5 was dissolved in 5% propylene glycol. Rats were administrated with GQ-5 as described before. All the rats were sacrificed 14 days after UUO. Western blot analyses were performed to examine the Smad4, Smad7 expression and p38, PI3K, ERK phosphorylation.
# [11] = test system: Smad4; test: Immunofluorescence staining of Smad4 nuclear translocation; type: cell-based, rat; details: NRK52E cells, GQ-5 2.5 μM pre-treated 1 h, TGF-β1 10 ng/ml 2 h
# Description: NRK52E cells were cultured in DMEM-Ham's medium supplemented with 10% fetal bovine serum. The cells reached at approximately 50% confluence were used for in vitro experiments. Cells were serum-starved for 12 h, and randomized into 3 groups: (1) Controls; (2) TGF-β1 only; (3) TGF-β1+GQ-5.
# (2) TGF-β1 only: pre-treated with DMSO for 1 h, followed with TGF-β1 (10 ng/ml) for 2 h
# (3) TGF-β1+GQ-5: pre-treated with GQ-5 (2.5 μM) for 1 h, followed with TGF-β1 (10 ng/ml) for 2 h
# GQ-5 was dissolved in DMSO. Cells were treated as described Immunofluorescence staining was performed to examine the nuclear translocation of Smad2, Smad3, and Smad4.
# Sequence of interaction of Smad3 with TβRI (P84025 whole entry): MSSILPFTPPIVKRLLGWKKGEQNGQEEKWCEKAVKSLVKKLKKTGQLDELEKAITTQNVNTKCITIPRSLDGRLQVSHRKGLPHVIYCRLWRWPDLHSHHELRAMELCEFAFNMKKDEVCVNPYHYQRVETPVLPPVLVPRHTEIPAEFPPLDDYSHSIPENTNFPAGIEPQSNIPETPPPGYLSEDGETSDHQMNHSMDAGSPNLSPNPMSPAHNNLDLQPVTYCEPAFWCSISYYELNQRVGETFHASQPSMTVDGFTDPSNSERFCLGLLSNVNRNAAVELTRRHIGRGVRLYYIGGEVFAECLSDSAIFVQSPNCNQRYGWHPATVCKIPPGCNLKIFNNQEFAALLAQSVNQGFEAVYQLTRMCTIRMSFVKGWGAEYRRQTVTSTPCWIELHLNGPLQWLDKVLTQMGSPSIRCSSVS
smiles,measurement,setting,value
"CCCCCC/C=C\CCCCCCCc1cccc(O)c1O [GQ-5, 3-[(Z)-pentadec-8-enyl]catechol]",interaction of Smad3 with TβRI,[1],significantly blocked
same,inflammatory cell infiltration,[2],significantly reduced
same,interstitial fibrosis score,[2],significantly reduced
same,up-regulation of α-SMA at both mRNA and protein level,[3],significantly inhibited
same,TGF-β1-induced Smad3-dependent collagen I promoter activity,[4],significantly inhibited TGF-β1-induced Smad3-dependent collagen I promoter activity in a dose-dependent manner
same,viability and proliferation of the cells (MTT),[5],did not affect
same,TGF-β1-induced protein expression of α-SMA,[6],significantly inhibited
same,TGF-β1-induced protein expression of fibronectin,[7],significantly inhibited
same,up-regulation of collagen I at both mRNA and protein level,[8],significantly inhibited
same,TGF-β1-induced protein expression of collagen I,[9],significantly inhibited
same,phosphorylation of p38,[10],did not affect
same,nuclear translocation of Smad4,[11],also reduced
